Laboratory results published in US11046700B2, “Substituted imidazo[1,2-a]pyrazines, pyrazolo[1,5-c]pyrimidines, pyrazolo[1,5-a]pyridines, and purines for the treatment of schistosomiasis” (Merck Patent GmbH, priority 2017, dated 2021).
pIC50: −log10 of the molar value.

Legend:
Assay type in all cases: cell-based
S. mansoni adult worms = assay: In vitro assay, S. mansoni adult worms; conditions: Schistosoma mansoni; S. mansoni adult worms, in vitro; read-out: (a) Adult
[1] = test system: S. mansoni juvenile worms; assay: In vitro assay, S. mansoni juvenile worms; conditions: Schistosoma mansoni; S. mansoni juvenile worms, in vitro; read-out: (b) Juvenile
[2] = test system: S. haemotobium adult worms; assay: In vitro assay, S. haemotobium adult worms; conditions: read-out: (c) S. haemotobium
Protocol: (§1) The routine biological assays using adult or juvenile worms and cytotoxicity assays using MRC-5 cells have been disclosed previously in Mansour, N. R., et al. (2016). “High Throughput Screening Identifies Novel Lead Compounds with Activity against Larval, Juvenile and Schistosoma mansoni PLoS Negl Trap Dis 10(4): e0004659. Cytotoxicity assays using the HepG2 cell line were carried out as described in Molecular Diversity (2015) 19, 251-261.
(c) S. haemotobium adult worms

MRC-5 cells = assay: Cytotoxicity against human MRC-5 cell line
Protocol: as §1
(d) Cytotoxicity against human MRC-5 cell line

HepG2 cell line = assay: Cytotoxicity against human HepG2 cell lines

Q: With CCc1nc2cnc(-c3cccc(C(F)(F)F)c3)cn2c1-c1ccc(O)cc1F [Example 8, 3-fluoro-4-[2-ethyl-6-[3-(trifluoromethyl)phenyl]imidazo[1,2-a]pyrazin-3-yl]phenol] as the compound, how does the pIC50 (S. mansoni adult worms) read?
A: 7.00

Q: What about the pIC50 [1] of the same compound?
A: 7.07

Q: And the pIC50 [2]?
A: > 5.81

Q: And the “(d) Cytotox MRC-5” value (MRC-5 cells)?
A: 17.3 µM

Q: What about the “(e) Cytotox HepG2” value (HepG2 cell line) of the same compound?
A: 18.7 µM
